In article PMC12348844, “Anti-Trypanosoma cruzi Potential of New Pyrazole-Imidazoline Derivatives” (Molecules, 2025):
Like-named read-outs stand apart in the source and are kept apart here.

Columns and labels:
[1] = test system: T. cruzi cysteine protease; test: Cysteine protease activity in trypomastigote protein extract (Z-Phe-Arg-AMC); type: biochemical, Trypanosoma cruzi; details: 90 min, 37 °C, 33.3, 100 and 300 µM tested
Method: Total proteins from T. cruzi Dm28c-Luc were extracted using a lysis buffer [100 mM Tris-HCl pH 8.0, 150 mM NaCl, 10% glycerol, 0.5% Triton X-100]. The protein concentration was quantified using the Bradford assay, with bovine serum albumin (BSA) used to establish the standard curve. For the assessment of cysteine protease activity, 5 μg of the protein extract was incubated in an acetate buffer [10 mM sodium acetate, pH 5.0], supplemented with 1 mM dithiothreitol (DTT) in a final volume of 100 μL. The reaction used a fluorogenic peptide substrate, N-benzoyloxycarbonyl-L-phenylalanyl-L-arginine 7-amino-4-methylcoumarin (Z-FR-AMC), at a concentration of 60 μM. Incubation was conducted at 37 °C for 90 min, with relative fluorescence changes measured using a SpectraMax M2e spectrophotometer (Molecular Devices, Sunnyvale, CA, USA). Inhibition assays were performed using three concentrations (33.3, 100, and 300 µM) of the promising candidate and trans-epoxysuccinyl-L-leucylamido(4-guanidino)butane (E-64), each analyzed separately. A control was included using a low DMSO concentration (≤1%). Enzymatic activity was expressed in µmol/min/mg of protein, with residual activity presented as a percentage.

[2] = test system: T. cruzi Dm28c-Luc trypomastigotes; test: Anti-T. cruzi in vitro assay, trypomastigotes (luminescence); type: cell-based; details: Trypanosoma cruzi, 24 h, mean ± SD
Method: (§1) The genetically modified Trypanosoma cruzi, clone Dm28c (TcI), expressing luciferase (Dm28c-Luc), was kindly provided by Dr. Cristina Henriques from Oswaldo Cruz Institute—Fiocruz. The parasites were maintained using Vero cell cultures in RPMI 1640 medium enriched with 10% FBS. At 4 days post-infection (dpi), the trypomastigotes released into the culture supernatant were harvested, subjected to centrifugation at 800× g for 20 min at 4 °C, and quantified with a Neubauer chamber. The isolated trypomastigotes were subsequently used for phenotypic screening, drug efficacy assessments employing a 3D cardiac model, washout experiments to evaluate reversibility, drug combination studies, and enzymatic assays.
Drug susceptibility assays were performed on T. cruzi Dm28c-Luc, a genetically engineered parasite expressing luciferase. The drug screening used both trypomastigotes and intracellular amastigotes. Trypomastigotes (1 × 10^6 parasites/well) were added to white 96-well plates with clear bottoms. […] The luminescence was measured using a Glomax Multi-Detection plate reader (Promega Corporation, Madison, WI, USA).

[3] = test system: T. cruzi Dm28c-Luc intracellular amastigotes; test: Anti-T. cruzi in vitro assay, intracellular amastigotes in Vero cells (luminescence); type: cell-based, Trypanosoma cruzi; details: for SI (selectivity index = CC50/IC50): CC50 Vero cells / IC50 intracellular amastigotes
Method: as §1
To evaluate the effect of pyrazole-imidazoline derivatives against intracellular amastigotes, Vero cells (1.5 × 10^4 cells/well) were cultured in a white 96-well plate with a clear bottom and subsequently infected with T. cruzi Dm28c-Luc at a 10:1 parasite-to-host cell ratio for 24 h. […] Parasite viability was measured by luminescence following the addition of luciferin (300 µg/mL). Background measurements (non-infected cultures incubated with luciferin, as well as luciferin-only controls) were performed to ensure the signal specifically originates from viable parasites. The IC50 and IC90 values, denoting the concentrations that achieve 50% and 90% reductions in viable parasites, respectively, were calculated using GraphPad Prism 8.2.1 software. Additionally, the selectivity index (SI) was calculated as the cytotoxic concentration (CC50) ratio in mammalian cells to the IC50 against T. cruzi, providing insight into the therapeutic window. Potency against intracellular amastigotes was evaluated using the formula 6—Log10 (IC50).

[4] = Cytotoxicity assay, Vero cells (CellTiter-Glo); type: cell-based; details: African green monkey, mean ± SD
Method: Vero cells, obtained from the Rio de Janeiro Cell Bank (BCRT code 0245) and maintained through weekly subculturing with a dissociation solution containing 0.25% trypsin-EDTA, initiated once the monolayer reached an 80–100% confluence. Following harvesting, the cells were washed and resuspended in RPMI 1640 medium enriched with 10% fetal bovine serum (FBS). Cultures were maintained at 37 °C in a 5% CO2-humidified incubator. These cultures were used for drug screening assays and for producing culture-derived trypomastigotes of T. cruzi.
Cytotoxicity assays were performed using Vero cells, which were seeded at a density of 1.5 × 10^4 cells per well in white 96-well plates with clear bottoms. Following a 24 h adhesion period, the cultures were incubated at 37 °C in a 5% CO2 atmosphere. […] After 72 h of incubation, cell viability was assessed by adding CellTiter-Glo reagent (Promega Corporation, Madison, WI, USA), which induces cell lysis and reacts with the released ATP to produce luminescence. The resulting luminescence was measured using a Glomax Multi-Detection plate reader (Promega Corporation, Madison, WI, USA). The half-maximal inhibitory concentration (CC50) for cell viability was then calculated using GraphPad Prism software version 8.2.1.

[5] = Trypanosoma cruzi, Vero, 72 h, Dm28c-Luc in Vero cells, mean ± SD, read-out: Intracellular Amastigotes IC50
[6] = Trypanosoma cruzi, Vero, intracellular amastigotes, 6 − Log10(IC50), read-out: pIC50 (potency) (converted)
[7] = Trypanosoma cruzi, 72 h, Dm28c-Luc in Vero cells, mean ± SD

Row | Compound | inhibition of cysteine protease activity [1] [%] | IC50 [2] [µM] | IC90 [2] [µM] | SI (selectivity index = CC50/IC50) [3] | IC50 [3, 5] [µM] | IC50 [3, 6] [µM] | IC90 [3, 7] [µM] | CC50 at 72 h [4] [µM] | IC50 ([3]; 72 h, Dm28c-Luc in Vero cells, mean ± SD, read-out: Intracellular Amastigotes IC50) [µM]
1 | CC(C)C[C@H](NC(=O)[C@H]1O[C@@H]1C(=O)O)C(=O)NCCCCN=C(N)N (relative stereo) [E-64, trans-epoxysuccinyl-L-leucylamido(4-guanidino)butane, reference compound] | 92.81 |  |  |  |  |  |  |  | 
2 | Nc1c(C2=NCCN2)cnn1-c1ccc(Cl)cc1Cl [1a, 5-amino-1-(2,4-dichlorophenyl)-4-(4,5-dihydro-1H-imidazol-2-yl)-1H-pyrazole] |  | > 100 | > 100 | >12.2 | 40.8 ± 3 | 75.9 | > 100 | > 500 | 
3 | Nc1c(C2=NCCN2)cnn1-c1cccc(F)c1 [1b, 5-amino-1-(3-fluorophenyl)-4-(4,5-dihydro-1H-imidazol-2-yl)-1H-pyrazole] |  | > 100 | > 100 |  | > 100 | > 100 | > 100 | > 500 | 
4 | Cc1ccc(-n2ncc(C3=NCCN3)c2N)cc1 [1c, 5-amino-1-(4-methylphenyl)-4-(4,5-dihydro-1H-imidazol-2-yl)-1H-pyrazole] |  | > 100 | > 100 |  | > 100 | > 100 | > 100 | > 500 | 
5 | Cc1ccc(-n2cc(C3=NCCN3)cn2)cc1 [1d, 1-(4-methylphenyl)-4-(4,5-dihydro-1H-imidazol-2-yl)-1H-pyrazole] |  | > 100 | > 100 | >14.7 | 33.9 ± 0.8 | 39.8 | > 100 | > 500 | 
6 | Cc1ccc(-n2ncc(C3=NCCN3)c2N)cc1Cl [1e, 5-amino-1-(3-chloro-4-methylphenyl)-4-(4,5-dihydro-1H-imidazol-2-yl)-1H-pyrazole] |  | 76.5 ± 10.3 | > 100 | >7.2 | 68.9 ± 8.1 | 79.4 | 96.6 ± 0.2 | > 500 | 
7 | Cc1cc(Cl)ccc1-n1ncc(C2=NCCN2)c1N [1f, 5-amino-1-(4-chloro-2-methylphenyl)-4-(4,5-dihydro-1H-imidazol-2-yl)-1H-pyrazole] |  | > 100 | > 100 | >6.5 | 76.1 ± 1.2 | 79.4 | > 100 | > 500 | 
8 | Cc1cccc(-n2ncc(C3=NCCN3)c2N)c1 [1g, 5-amino-1-(3-methylphenyl)-4-(4,5-dihydro-1H-imidazol-2-yl)-1H-pyrazole] |  | > 100 | > 100 | >6.3 | 78.9 ± 2.2 | 79.4 | > 100 | > 500 | 
9 | Cc1cccc(-n2cc(C3=NCCN3)cn2)c1 [1h, 1-(3-methylphenyl)-4-(4,5-dihydro-1H-imidazol-2-yl)-1H-pyrazole] |  | > 100 | > 100 | >19.1 | 26.1 ± 3.4 | 25.1 | 89.7 ± 7.4 | > 500 | 26.2 ± 3.4
10 | Nc1c(C2=NCCN2)cnn1-c1cccc(C(F)(F)F)c1 [1i, 5-amino-1-(3-trifluoromethylphenyl)-4-(4,5-dihydro-1H-imidazol-2-yl)-1H-pyrazole] |  | > 100 | > 100 | >9.6 | 51.9 ± 3.6 | 63.1 | > 100 | > 500 | 
11 | Nc1c(C2=NCCN2)cnn1-c1ccc(C(F)(F)F)cc1 [1j, 5-amino-1-(4-trifluoromethylphenyl)-4-(4,5-dihydro-1H-imidazol-2-yl)-1H-pyrazole] |  | > 100 | > 100 | >5.6 | 88.1 ± 0.2 | 100 | > 100 | > 500 | 
12 | Nc1c(C2=NCCN2)cnn1-c1cc(C(F)(F)F)cc(C(F)(F)F)c1 [1l, 5-amino-1-((3,5-ditrifluoromethyl)phenyl)-4-(4,5-dihydro-1H-imidazol-2-yl)-1H-pyrazole] |  | > 100 | > 100 | 16.7 | 27.7 ± 2 | 31.6 | 80.1 ± 11.4 | 464 ± 15.2 | 
13 | FC(F)(F)c1cc(-n2cc(C3=NCCN3)cn2)cc(C(F)(F)F)c1 [1m, 1-((3,5-ditrifluoromethyl)phenyl)-4-(4,5-dihydro-1H-imidazol-2-yl)-1H-pyrazole] |  | > 100 | > 100 | 3.5 | 32.4 ± 5.9 | 31.6 | 80.7 ± 0.4 | 114 ± 11.9 | 
